Test results reported in US8372967B2, “Compounds and methods for modulating expression of GCCR” (Isis Pharmaceuticals, Inc., priority 2006, dated 2013).
Strand notation (5' to 3'): a small letter for the sugar, then the base; units joined by * are phosphorothioate-linked, units joined directly phosphodiester-linked; [ ] holds rarer units or linkages, { } end groups; capitals alone tell only the bases. e = 2'-O-(2-methoxyethyl) (MOE); [5mC] = 5-methylcytosine; d = 2'-deoxy (DNA)

Legend:
Type in all cases: in vivo
mouse SGLT2 mRNA [1] = assay: Mouse SGLT2 mRNA in kidney, MOE versus Methyleneoxy BNA gapmers (Table 69); conditions: Balb/c mouse kidney
Method: The effect of ISIS 3796921-10-1 MOE gapmer and ISIS 3886252-8-2 MOE gapmer are compared with the effect of ISIS 3921701-10-1 Methyleneoxy BNA Gapmer and ISIS 3921732-8-2 Methyleneoxy BNA Gapmer (see Table 69) on mouse SGLT2 mRNA levels in vivo. Data are taken from three experiments in which male 6-week old Balb/c mice were dosed twice per week for three weeks with 5, 25 and 125 nmol/kg of either the ISIS 3796921-10-1 MOE gapmer or the ISIS 3886252-8-2 MOE gapmer given by intraperitoneal injection. Mice were sacrificed 48 hours following last administration and evaluated for SGLT2 mRNA levels in kidney. Target levels were determined by RT, real-time PCR as described by other examples herein. PCR results were normalized to an internal ISIS control. The data are expressed as percent change (“+” indicates an increase, “−” indicates a decrease) relative to saline treated animals and are illustrated in Table 69.

rat SGLT2 mRNA [2] = assay: Rat SGLT2 mRNA in kidney, 1-10-1 gapmers, 250 nmol/kg (Table 66); conditions: for % change in SGLT2 expression relative to saline: 250 nmol/kg i.p. twice per week for three weeks, Sprague-Dawley rat kidney
Method: The effect of the above 1-10-1 gapmers (see Table 64 above) on rat SGLT2 mRNA levels. Data are taken from four experiments in which male Sprague-Dawley rats (170-200 g) were dosed twice per week for three weeks with 250 nmol/kg given by intraperitoneal injection. Rats were sacrificed 48 hours following last administration and evaluated for SGLT2 mRNA levels in kidney. Target levels were determined by RT, real-time PCR as described by other examples herein. PCR results were normalized to an internal ISIS control.

rat SGLT2 mRNA [3] = assay: Rat SGLT2 mRNA in kidney, 1-10-1 and 2-8-2 MOE gapmer (Table 70); conditions: Sprague-Dawley rat kidney
Method: The effect of ISIS 3796921-10-1 MOE gapmer and ISIS 388625 MOE 2-8-2 gapmer (see Table 70) on rat SGLT2 mRNA levels in vivo. […] Rats were sacrificed 48 hours following last administration and evaluated for SGLT2 levels in kidney. Target levels were determined by RT, real-time PCR as described by other examples herein. PCR results were normalized to an internal ISIS control.

mouse SGLT2 mRNA [4] = assay: Mouse SGLT2 mRNA in kidney, 1-10-1 MOE gapmers, Balb/c mice (Table 65)
Method: The short antisense compounds were analyzed for their effect on mouse SGLT2 mRNA levels. Data was taken from three experiments in which Male 6-week old Balb/c mice were dosed twice per week for two weeks with 450, 150, or 50 nmol/kg of one of the above 1-10-1 MOE gapmers given by intraperitoneal injection. Mice were sacrificed 48 hours following last administration and evaluated for SGLT2 mRNA levels in kidney. Target levels were determined by RT, real-time PCR as described by other examples herein. PCR results were normalized to an internal ISIS control.

mouse SGLT2 mRNA [5] = assay: Mouse SGLT2 mRNA in kidney, additional 1-10-1 and 2-8-2 MOE gapmers (Table 68); conditions: Balb/c mouse kidney
Method: 1-10-1 and 2-8-2 MOE gapmer short antisense compounds were designed to target different regions of the mouse SGLT2 RNA but have complementarity across species. […] All cytidine residues are 5-methylcytidines.
The short antisense compounds were analyzed for their effect on mouse SGLT2 mRNA levels in vivo. Data was taken from three experiments in which male 6-week old Balb/c mice were dosed twice per week for three weeks with 0.5, 0.1, or 0.02 umol/kg of either a 1-10-1 or 2-8-2 MOE gapmer given by intraperitoneal injection. Mice were sacrificed 48 hours following last administration and evaluated for SGLT2 levels in kidney. Target levels were determined by RT, real-time PCR as described by other examples herein. PCR results were normalized to an internal ISIS control.

rat SGLT2 mRNA [6] = assay: Rat SGLT2 mRNA in kidney, 1-10-1 and 1-10-2 MOE gapmers, Sprague-Dawley rats (Table 63)
Text: 1-10-1 and 1-10-2 MOE gapmer antisense compounds, provided in Table 62, were designed to target different regions of the mouse or rat SGLT2 RNA. All short antisense compounds in Table 62 are chimeric oligonucleotides (“gapmers”) either 12 or 13 nucleotides in length, composed of a central “gap” segment consisting of ten 2′-deoxynucleotides, which are flanked on the 5′ side by a one-nucleoside “wing” and on the 3′ side by a two or one-nucleotide “wing”. […] All cytidine residues are 5-methylcytidines.
The short antisense compounds were analyzed for their effect on rat SGLT2 mRNA levels. Data are ranges taken from three experiments in which Male Sprague-Dawley rats (170-200 g) were dosed twice per week for three weeks with 450, 150 or 50 nmol/kg of either a 1-10-1 or 1-10-2 MOE gapmer given by intraperitoneal injection. Rats were sacrificed 48 hours following last administration and evaluated for SGLT2 mRNA levels in kidney. Target levels were determined by RT, real-time PCR as described by other examples herein. PCR results were normalized to an internal ISIS control.

[7] = 50 nmol/kg i.p. twice per week for two weeks
[8] = 150 nmol/kg i.p. twice per week for two weeks
[9] = 450 nmol/kg i.p. twice per week for two weeks
[10] = 0.02 umol/kg i.p. twice per week for three weeks
[11] = 0.1 umol/kg i.p. twice per week for three weeks
[12] = 0.5 umol/kg i.p. twice per week for three weeks
[13] = 50 nmol/kg i.p. twice per week for three weeks
[14] = 150 nmol/kg i.p. twice per week for three weeks
[15] = 450 nmol/kg i.p. twice per week for three weeks

## ISIS 379692: 1-10-1 MOE gapmer, SGLT2 (eT*dG*dT*dT*d[5mC]*d[5mC]*dA*dG*d[5mC]*d[5mC]*d[5mC]*eA)
Mouse SGLT2 mRNA [1]; 5 nmol/kg i.p. twice per week for three weeks
  SGLT2 mRNA, percent change relative to saline treated animals: −7%
Mouse SGLT2 mRNA [1]; 25 nmol/kg i.p. twice per week for three weeks
  SGLT2 mRNA, percent change relative to saline treated animals: −46%
Mouse SGLT2 mRNA [1]; 125 nmol/kg i.p. twice per week for three weeks
  SGLT2 mRNA, percent change relative to saline treated animals: −58%
Rat SGLT2 mRNA [2]
  % change in SGLT2 expression relative to saline: −85%
Rat SGLT2 mRNA [3]; dose 3.125 umol/kg [sic] i.p. twice per week for three weeks
  % change in SGLT2 expression relative to saline: +30%
Rat SGLT2 mRNA [3]; dose 12.5 umol/kg [sic] i.p. twice per week for three weeks
  % change in SGLT2 expression relative to saline: −15%
Rat SGLT2 mRNA [3]; dose 50 umol/kg [sic] i.p. twice per week for three weeks
  % change in SGLT2 expression relative to saline: −65%
Rat SGLT2 mRNA [3]; dose 200 umol/kg [sic] i.p. twice per week for three weeks
  % change in SGLT2 expression relative to saline: −80%
Mouse SGLT2 mRNA [4]; [7]
  % change in SGLT2 expression relative to saline: −52.5%
Mouse SGLT2 mRNA [4]; [8]
  % change in SGLT2 expression relative to saline: −70%
Mouse SGLT2 mRNA [4]; [9]
  % change in SGLT2 expression relative to saline: −80%
Mouse SGLT2 mRNA [5]; [10]
  % change in SGLT2 expression relative to saline: −55%
Mouse SGLT2 mRNA [5]; [11]
  % change in SGLT2 expression relative to saline: −75%
Mouse SGLT2 mRNA [5]; [12]
  % change in SGLT2 expression relative to saline: −85%
Rat SGLT2 mRNA [6]; [13]
  % change in SGLT2 expression relative to saline: −80%
Rat SGLT2 mRNA [6]; [14]
  % change in SGLT2 expression relative to saline: −85%
Rat SGLT2 mRNA [6]; [15]
  % change in SGLT2 expression relative to saline: −90%

## ISIS 379699: GGCATGAGCTTC 1-10-1 MOE, SGLT2 (eG*dG*d[5mC]*dA*dT*dG*dA*dG*d[5mC]*dT*dT*e[5mC])
Rat SGLT2 mRNA [2]
  % change in SGLT2 expression relative to saline: −75%
Mouse SGLT2 mRNA [4]; [7]
  % change in SGLT2 expression relative to saline: −42.5%
Mouse SGLT2 mRNA [4]; [8]
  % change in SGLT2 expression relative to saline: −62.5%
Mouse SGLT2 mRNA [4]; [9]
  % change in SGLT2 expression relative to saline: −80%
Mouse SGLT2 mRNA [5]; [10]
  % change in SGLT2 expression relative to saline: −30%
Mouse SGLT2 mRNA [5]; [11]
  % change in SGLT2 expression relative to saline: −60%
Mouse SGLT2 mRNA [5]; [12]
  % change in SGLT2 expression relative to saline: −75%
Rat SGLT2 mRNA [6]; [13]
  % change in SGLT2 expression relative to saline: −60%
Rat SGLT2 mRNA [6]; [14]
  % change in SGLT2 expression relative to saline: −75%
Rat SGLT2 mRNA [6]; [15]
  % change in SGLT2 expression relative to saline: −83%

## ISIS 379702 (eG*d[5mC]*dA*d[5mC]*dA*d[5mC]*dA*dG*d[5mC]*dT*dG*e[5mC])
Rat SGLT2 mRNA [2]
  % change in SGLT2 expression relative to saline: −25%
Mouse SGLT2 mRNA [4]; [7]
  % change in SGLT2 expression relative to saline: −52.5%
Mouse SGLT2 mRNA [4]; [8]
  % change in SGLT2 expression relative to saline: −72.5%
Mouse SGLT2 mRNA [4]; [9]
  % change in SGLT2 expression relative to saline: −75%
Mouse SGLT2 mRNA [5]; [10]
  % change in SGLT2 expression relative to saline: −40%
Mouse SGLT2 mRNA [5]; [11]
  % change in SGLT2 expression relative to saline: −65%
Mouse SGLT2 mRNA [5]; [12]
  % change in SGLT2 expression relative to saline: −70%

## ISIS 381408: 1-10-1 MOE gapmer targeting SGLT2 mRNA (TACCGAACACCT; sugars from the 5' end e1 d10 e1, backbone and methylation of C not given here)
Rat SGLT2 mRNA [2]
  % change in SGLT2 expression relative to saline: −5%
Rat SGLT2 mRNA [2]; 250 nmol/kg twice per week for three weeks
  expression of SGLT2 in in vivo rat studies: Activity of ISIS 381408 has been shown
